This assay deals with T1, HCV polymerase (Hepatitis C virus genotype 1b, UniProt P26663).
T1 construct: 2.5 pmoles (0.15 μg) HCV polymerase protein in a final volume of 75 μL
As to the kind of experiment: HCV polymerase primer/template-directed transcription assay (32P-GTP incorporation, filter binding). Format: biochemical. To be noted: for pIC50: recombinant HCV polymerase, 30 minutes at 30° C., concentration giving 50% inhibition of polymerase-directed transcription, read-out: IC50. The method in brief: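 IC50s come from triplicate cpm, refit with an enzyme-concentration (30 nM) correction when under 200 nM. Reactions ran 30 min at 30° C in Tris pH 7.2 with MgCl2, 1 μM GTP spiked with α-32P-GTP, biotin-dG12 primer and poly(rC)300 template, with 1% DMSO. Incorporated label was collected on DE filtermats and counted.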

Molecules are shown by their SMILES. pIC50: −log10 of the molar value.

A word on the pIC50: it is −log10 of the IC50, conventionally taken in molar units. The inhibition is the percentage by which the read-out fell short of the control.

T1 sequence (P26663 2420-3010): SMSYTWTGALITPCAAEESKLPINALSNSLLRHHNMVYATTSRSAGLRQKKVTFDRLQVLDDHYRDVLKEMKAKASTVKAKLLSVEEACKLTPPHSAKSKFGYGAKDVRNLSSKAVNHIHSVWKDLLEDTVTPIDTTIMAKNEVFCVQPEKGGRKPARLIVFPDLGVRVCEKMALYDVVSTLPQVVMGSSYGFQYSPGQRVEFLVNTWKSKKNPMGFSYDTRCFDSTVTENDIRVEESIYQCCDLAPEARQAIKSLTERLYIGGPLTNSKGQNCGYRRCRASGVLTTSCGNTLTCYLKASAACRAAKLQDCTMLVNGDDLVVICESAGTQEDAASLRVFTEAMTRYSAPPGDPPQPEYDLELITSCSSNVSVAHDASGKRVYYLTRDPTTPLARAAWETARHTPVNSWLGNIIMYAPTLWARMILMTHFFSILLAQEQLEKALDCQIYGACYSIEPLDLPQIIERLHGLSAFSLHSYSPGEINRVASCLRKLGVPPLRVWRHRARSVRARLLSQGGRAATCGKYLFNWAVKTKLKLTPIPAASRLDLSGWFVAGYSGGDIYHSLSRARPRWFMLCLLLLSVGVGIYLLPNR

For the molecule `CCc1ccc(O)c(CCC2(C3CCCC3)CC(O)=C(Cc3nc4ncc(Cl)cn4n3)C(=O)O2)c1` (single isomer, unassigned; enantiomer 2) [A(172), Enantiomer 2 of 3-(6-Chloro-[1,2,4]triazolo[1,5-a]pyrimidin-2-ylmethyl)-6-cyclopentyl-6-[2-(5-ethyl-2-hydroxy-phenyl)-ethyl]-4-hydroxy-5,6-dihydro-pyran-2-one], the pIC50 was 8.22.

On to `COc1ccc(CCC2(C3CCCC3)CC(O)=C(Sc3nnc(-c4cccnc4)[nH]3)C(=O)O2)cc1Cl` (centres unmarked) [C(92), 6-[2-(3-chloro-4-methoxyphenyl)ethyl]-6-cyclopentyl-4-hydroxy-3-[(5-pyridin-3-yl-4H-1,2,4-triazol-3-yl)thio]-5,6-dihydro-2H-pyran-2-one], for which the pIC50 is 7.09.

Turning to `C=CCC1(CCc2ccc(OC)cc2)CC(=O)CC(=O)O1` (centres unmarked) [A(26), 6-Allyl-6-[2-(4-methoxy-phenyl)-ethyl]-dihydro-pyran-2,4-dione], the inhibition at 50 µM (@ 50 uM compound, given where IC50 was impractical to calculate, read-out: percent inhibition) was 20%.

With `CCc1cc(CCC2(C3CCCC3)CC(O)=C(Cc3nc[nH]c3C)C(=O)O2)c(OC)cc1O` (centres unmarked) [A(156), 6-Cyclopentyl-6-[2-(5-ethyl-4-hydroxy-2-methoxy-phenyl)-ethyl]-4-hydroxy-3-(5-methyl-1H-imidazol-4-ylmethyl)-5,6-dihydro-pyran-2-one], the pIC50 is 7.68.

For the molecule `Cc1cc(C)n2nc(CC3=C(O)CC(CCc4ccc(C(C)(C)C#N)c(F)c4)(C4CCCC4)OC3=O)nc2n1` (centres unmarked) [B(75), 2-(4-{2-[2-Cyclopentyl-5-(5,7-dimethyl-[1,2,4]triazolo[1,5-a]pyrimidin-2-ylmethyl)-4-hydroxy-6-oxo-3,6-dihydro-2H-pyran-2-yl]-ethyl}-2-fluoro-phenyl)-2-methyl-propionitrile], the pIC50 was 8.52.

As for `COc1ccc(CCC2(C3CCCC3)CC(O)=C(Sc3nncn3C(C)(C)C)C(=O)O2)cc1Cl` (centres unmarked) [C(34), 3-[(4-tert-butyl-4H-1,2,4-triazol-3-yl)thio]-6-[2-(3-chloro-4-methoxyphenyl)ethyl]-6-cyclopentyl-4-hydroxy-5,6-dihydro-2H-pyran-2-one], the pIC50 was 7.28.

`Cc1cc(C)n2nc(CC3=C(O)CC(CCc4ccc(OC(C)C)c(F)c4)(C4CCCC4)OC3=O)nc2n1` (single isomer, unassigned) [J(4), 6-cyclopentyl-3-[(5,7-dimethyl[1,2,4]triazolo[1,5-a]pyrimidin-2-yl)methyl]-6-[2-(3-fluoro-4-isopropoxyphenyl)ethyl]-4-hydroxy-5,6-dihydro-2H-pyran-2-one]: the negative-log IC50 (pIC50) is 7.72.

Take `COC(=O)CC(=O)CC(=O)C(C)(C)Oc1ccc(CCC2(C3CCCC3)CC(=O)CC(=O)O2)cc1F` (centres unmarked) [A(52), 6-{4-[2-(2-Cyclopentyl-4,6-dioxo-tetrahydro-pyran-2-yl)-ethyl]-2-fluoro-phenoxy}-6-methyl-3,5-dioxo-heptanoic acid methyl ester]: the pIC50 is 5.82.

As for `CCc1cc(CCC2(C3CCCC3)CC(=O)CC(=O)O2)ccn1` (centres unmarked) [A(163), 6-Cyclopentyl-6-[2-(2-ethyl-pyridin-4-yl)-ethyl]-dihydro-pyran-2,4-dione], the pIC50 is 5.72.

In the case of `O=C1OC(CCCC2CCCCC2)(C2CCCC2)CC(O)=C1Sc1nnc(-c2ccncc2)[nH]1` (centres unmarked) [C(30), 6-(3-Cyclohexyl-propyl)-6-cyclopentyl-4-hydroxy-3-(5-pyridin-4-yl-4H-[1,2,4]triazol-3-ylsulfanyl)-5,6-dihydro-pyran-2-one], the pIC50 was 6.26.

As to `CC(=O)N[C@H](C)c1ccc(CCC2(C3CCCC3)CC(=O)CC(=O)O2)cc1` (some centres unmarked) [A(38), N-(1-{4-[2-(2-Cyclopentyl-4,6-dioxo-tetrahydro-pyran-2-yl)-ethyl]-phenyl}-ethyl)-acetamide], the pIC50 is 4.92.

`C[C@@H](O)c1ccc(CCC2(C3CCCC3)CC(=O)CC(=O)O2)cc1` (some centres unmarked) [A(35), 6-Cyclopentyl-6-{2-[4-(1-hydroxy-ethyl)-phenyl]-ethyl}-dihydro-pyran-2,4-dione]: the negative logarithm of the IC50 (pIC50) is 5.39.

Regarding `CC(C)n1c(SC2=C(O)CC(CCCC3CCCCC3)(C3CCCC3)OC2=O)nc2cc(Cl)ccc21` (centres unmarked) [C(31), 3-(5-Chloro-1-isopropyl-1H-benzoimidazol-2-ylsulfanyl)-6-(3-cyclohexyl-propyl)-6-cyclopentyl-4-hydroxy-5,6-dihydro-pyran-2-one], the negative-log IC50 (pIC50) was 6.29.

Consider `Cc1cnc2nc(CC3=C(O)CC(CCc4ccc(C(C)(C)C#N)c(Cl)c4)(C4CCCC4)OC3=O)nn2c1` (centres unmarked) [A(199), 2-(2-Chloro-4-{2-[2-cyclopentyl-4-hydroxy-5-(6-methyl-[1,2,4]triazolo[1,5-a]pyrimidin-2-ylmethyl)-6-oxo-3,6-dihydro-2H-pyran-2-yl]-ethyl}-phenyl)-2-methyl-propionitrile], for which the pIC50 is 8.00.

As for `O=C1CC(=O)OC(CCc2ccc(O)c(Cl)c2)(C2CCCC2)C1` (centres unmarked) [A(95), 6-[2-(3-Chloro-4-hydroxy-phenyl)-ethyl]-6-cyclopentyl-dihydro-pyran-2,4-dione], the negative logarithm of the IC50 (pIC50) is 5.68.

Regarding `COC(=O)C(C)(C)c1ccc(CCC2(C3CCCC3)CC(O)=C(Cc3nc4ncc(C)cn4n3)C(=O)O2)cc1F` (centres unmarked) [A(270), 2-(4-{2-[2-Cyclopentyl-4-hydroxy-5-(6-methyl-[1,2,4]triazolo[1,5-a]pyrimidin-2-ylmethyl)-6-oxo-3,6-dihydro-2H-pyran-2-yl]-ethyl}-2-fluoro-phenyl)-2-methyl-propionic acid methyl ester], the pIC50 is 7.43.

On to `COc1ccc(CCC2(C3CCCC3)CC(O)=C(Cc3nc4ncc(Cl)cn4n3)C(=O)O2)c(OC)c1` (centres unmarked) [B(119), 3-(6-Chloro-[1,2,4]triazolo[1,5-a]pyrimidin-2-ylmethyl)-6-cyclopentyl-6-[2-(2,4-dimethoxy-phenyl)-ethyl]-4-hydroxy-5,6-dihydro-pyran-2-one], for which the negative logarithm of the IC50 (pIC50) is 7.15.

On to `COc1cc(OC)c(CCC2(C3CCCC3)CC(O)=C(Sc3nc4cc(N)ccc4n3C)C(=O)O2)cc1Cl` (centres unmarked) [C(76), 3-[(5-amino-1-methyl-1H-benzimidazol-2-yl)thio]-6-[2-(5-chloro-2,4-dimethoxyphenyl)ethyl]-6-cyclopentyl-4-hydroxy-5,6-dihydro-2H-pyran-2-one], for which the pIC50 is 7.28.

Regarding `O=C1CC(=O)OC(CCc2ccc(-c3ccccc3)c(F)c2)(C2CCCC2)C1` (centres unmarked) [A(09), 6-Cyclopentyl-6-[2-(2-fluoro-biphenyl-4-yl)-ethyl]-dihydro-pyran-2,4-dione], the negative logarithm of the IC50 (pIC50) is 5.26.

Consider `CCc1cccc(CCC2(C3CCCC3)CC(O)=C(Cc3nc4nc(C)cc(C)n4n3)C(=O)O2)c1` (centres unmarked) [B(12), 6-Cyclopentyl-3-(5,7-dimethyl-[1,2,4]triazolo[1,5]pyrimidin-2-ylmethyl)-6-[2-(3-ethyl-phenyl)-ethyl]-4-hydroxy-5,6-dihydro-pyran-2-one], for which the pIC50 is 7.59.

As for `CC(C)Oc1ccc(CCC2(C3CCCC3)CC(O)=C(Sc3ccc(O)cc3)C(=O)O2)cc1F` (centres unmarked) [C(08), 6-Cyclopentyl-6-[2-(3-fluoro-4-isopropoxy-phenyl)-ethyl]-4-hydroxy-3-(4-hydroxy-phenylsulfanyl)-5,6-dihydro-pyran-2-one], the pIC50 was 6.51.

As to `CCCc1cc(CCC2(C3CCCC3)CC(O)=C(Cc3nc4nc(CC)cc(CC)n4n3)C(=O)O2)ccc1O` (centres unmarked) [A(137), 6-cyclopentyl-3-[(5,7-dietylphenyl)ethyl]-5,6-hyl[1,2,4]triazolo[1,5-a]pyrimidin-2-yl)methyl]-4-hydroxy-6-[2-(4-hydroxy-3-propdihydro-2H-pyran-2-one], the negative logarithm of the IC50 (pIC50) is 8.15.

Take `Cc1cnc2nc(CC3=C(O)CC(CCc4ccc(C(C)(C)O)c(F)c4)(C4CCCC4)OC3=O)nn2c1` (centres unmarked) [A(216)]: the negative logarithm of the IC50 (pIC50) is 7.35.

On to `COc1ccc(CCC2(C3CCCC3)CC(O)=C(Sc3nc4cc(Cl)ccc4n3C(C)C)C(=O)O2)cc1Cl` (centres unmarked) [C(40), 3-[(5-chloro-1-isopropyl-1H-benzimidazol-2-yl)thio]-6-[2-(3-chloro-4-methoxyphenyl)ethyl]-6-cyclopentyl-4-hydroxy-5,6-dihydro-2H-pyran-2-one], for which the pIC50 was 7.60.

Consider `Cc1csc2nc(CC3=C(O)CC(CCc4ccc(OCC5CC5)c(Cl)c4)(C4CCCC4)OC3=O)cc(=O)n12` (centres unmarked) [B(58), 7-[(6-{2-[3-Chloro-4-(cyclopropylmethoxy)phenyl]ethyl}-6-cyclopentyl-4-hydroxy-2-oxo-5,6-dihydro-2H-pyran-3-yl)methyl]-3-methyl-5H-[1,3]thiazolo[3,2-a]pyrimidin-5-one], for which the negative logarithm of the IC50 (pIC50) is 5.21.

Take `CC(C)(CO)c1ccc(CCC2(C3CCCC3)CC(=O)CC(=O)O2)cc1F` (centres unmarked) [A(121), 6-Cyclopentyl-6-{2-[3-fluoro-4-(2-hydroxy-1,1-dimethyl-ethyl)-phenyl]-ethyl}-dihydro-pyran-2,4-dione]: the negative-log IC50 (pIC50) was 5.89.

Take `COc1ccc(CCC2(C3CCCC3)CC(OCc3ccccn3)=CC(=O)O2)cc1Cl` (centres unmarked) [G(2), 6-[2-(3-Chloro-4-methoxy-phenyl)-ethyl]-6-cyclopentyl-4-(pyridin-2-ylmethoxy)-5,6-dihydro-pyran-2-one]: the inhibition at 20 µM (@ 20 uM compound, given where IC50 was impractical to calculate, read-out: percent inhibition) is 3%.

Regarding `COc1cc(OC)c(CCC2(C3CCCC3)CC(O)=C(Cc3nc4nc(C)cc(C)n4n3)C(=O)O2)cc1Cl` (centres unmarked) [B(52), 6-[2-(5-chloro-2,4-dimethoxyphenyl)ethyl]-6-cyclopentyl-3-[(5,7-dimethyl[1,2,4]triazolo[1,5-a]pyrimidin-2-yl)methyl]dihydro-2H-pyran-2,4(3H)-dione], the pIC50 was 6.77.

Regarding `COc1cc(OC)c(CCC2(C3CCCC3)CC(O)=C(Sc3nnc(-c4cccnc4)n3C)C(=O)O2)cc1Cl` (centres unmarked) [C(85), 6-[-(5-chloro-2,4-dimethoxyphenyl)ethyl]-6-cyclopentyl-4-hydroxy-3-[(4-methyl-5-pyridin-3-yl-4H-1,2,4-triazol-3-yl)thio]-5,6-dihydro-2H-pyran-2-one], the negative-log IC50 (pIC50) is 7.46.

(Values after patent US7473790B2 (Pfizer Inc., priority 2003, dated 2009).)
